Here are results for one compound from ChEMBL document CHEMBL4308864, “Targeting tyrosine kinase: Development of acridone - pyrrole - oxindole hybrids against human breast cancer” (2019).

SMILES strings stand for the structures.

Assay type in all cases: functional
One assay has as its system T47D. The assay can be described thus: Growth inhibition of human T47D cells at 10^-5 M incubated for 48 hrs by sulforhodamine B assay relative to control. The conditions noted are these: read-out: GI. Background: The SRB assay estimates cell density from bound dye.
The subject of the next assay is MDA-MB-468. The assay can be described thus: Growth inhibition of human MDA-MB-468 cells at 10^-5 M incubated for 48 hrs by sulforhodamine B assay relative to control. The settings on record: MDA-MB-468, 48 h, read-out: GI.
Another assay deals with MCF7. The assay is described as follows: Growth inhibition of human MCF7 cells at 10^-5 M incubated for 48 hrs by sulforhodamine B assay relative to control. The conditions noted are these: MCF7, 48 h, read-out: GI.

On to `O=C1/C(=C\c2cccn2Cc2ccccc2)c2ccccc2N1c1c(Cl)cccc1Cl`, for which the inhibition of growth at 10 µM with T47D was determined as 100%; with MDA-MB-468, 100%; in the assay with MCF7, 93%.
